Measured values reported in patent EP0361977A2, “Peptides having T cell suppressor activity” (IMM[…] INSTITUTE, INC., priority 1988, dated 1990).
Where a SMILES comes first, the peptide text is derived from it. The star is where a group is joined. βNA = c1ccc2cc(N*)ccc2c1; NHcHex = C1CCC(N*)CC1; NHPh = c1ccc(N*)cc1; X1 = c1ccc(NN*)cc1; NHiPr = CC(C)N*; For = O=C*

Experiments:
CEM cells = assay: Cyclic GMP assay in CEM cells; format: cell-based, human; settings: for induction of intracellular cyclic GMP (active / inactive peptides): CEM cells, dose-response curves from 1 to 1000 micrograms/ml, Fig. 1, composite of 6 experiments, compared with thymopentin; for T cell suppressor activity: thymopentin-like activity, cyclic GMP assays on CEM cells
Description: This assay measures the ability of a peptide of this invention to bind to the cell membrane receptor of the intact CEM cell and selectively stimulate production of cyclic GMP, as does human thymopentin.
The CEM cell line was obtained from the American Type Culture Collection of Rockville, Md. CEM cells were freshly seeded and grown for 3 days with harvesting as described in T. Audhya et al, Arch. Biochem Biophys., 234: 167-177 (1984). The cells were washed 3 times in PBS and resuspended in RPMI 1640 at a concentration of 1.0 x 10⁷ cells/ml and were allowed to equilibrate at 37°C for 30 minutes before the addition of the test peptides (25 ul) and control peptides. The incubation was allowed to proceed in a shaking water bath for 4-5 minutes and was then terminated by addition of 1 ml ice-cold TCA (10 percent).
The cells in TCA were homogenized and sonicated to release cyclic nucleotide. The suspension was centrifuged at 3000 x g for 20 minutes at 4°C. The resulting precipitate was dissolved in 0.1 N NaOH to determine the protein content. TCA was removed from the supernatant fraction by extracting 4 times with 5 ml of water-saturated ET₂O. After the final extraction, the remaining traces of ether were removed by heating for 10 minutes in a 50°C water bath. After lyophilization the sample was reconstituted in 50 mM acetate buffer (pH 6.2) for radioimmunoassay of cyclic GMP.
For example, dose-response curves from 1 to 1000 micrograms/ml of peptide, were evaluated for each compound. […] A threshold activity was determined for each peptide tested. This is defined as the lowest concentration of the test peptide which induced an intracellular level of cyclic GMP greater than two standard deviations above the control. The controls had intracellular cyclic GMP values of less than 0.9 picomoles/ml (mean±standard deviation). Test results were considered positive if the level of cyclic GMP was greater than 2 times that determined for the parallel negative control. Active peptides had activity thresholds ranging from […].

helper T cell activity = settings: mice; cited from earlier work
MOLT-4 cells = assay: T cell helper activity, MOLT-4 T cell line (intracellular cGMP); format: cell-based, human; settings: thymopentin-like; assay not described for these peptides

Row | Molecule | induction of intracellular cyclic GMP (active / inactive peptides) (CEM cells) | helper T cell activity in vivo (helper T cell activity) | T cell suppressor activity (CEM cells) | T cell helper activity (MOLT-4 cells)
1 | CC(C)[C@H](NC(=O)[C@H](CC(=O)O)NC(=O)[C@H](CCCCN)NC(=O)[C@@H](N)CCCNC(=N)N)C(=O)NC1CCCCC1 [Arg-Lys-Asp-Val-Cyclohexylamide] (H-RKDV-NHcHex) | active |  |  | 
2 | Arg-Lys-Glu-Val-Tyr [SP-5] |  | stimulates helper T cell activity in vivo in mice |  | 
3 | Arg-Lys-Asp-Val-Piperidineamide | active |  |  | 
4 | CC(C)[C@H](NC(=O)[C@H](CC(=O)O)NC(=O)[C@H](CCCCN)NC(=O)[C@@H](N)CCCNC(=N)N)C(=O)Nc1ccc2ccccc2c1 [Arg-Lys-Asp-Val-2-Naphthylamide, reference compound] (H-RKDV-βNA) | inactive |  | do not display T cell suppressor stimulatory activity of thymopentin | 
5 | CC(C)[C@H](NC(=O)[C@H](CC(=O)O)NC(=O)[C@H](CCCCN)NC(=O)[C@@H](N)CCCNC(=N)N)C(=O)Nc1ccccc1 [Arg-Lys-Asp-Val-Anilineamide] (H-RKDV-NHPh) | active |  |  | 
6 | CCNC(=O)[C@@H](NC(=O)[C@H](CCC(=O)O)NC(=O)[C@@H]1CCCN1C(=O)[C@H](CCCNC(=N)N)NC(C)=O)C(C)C [Acetyl-Arg-Pro-Glu-Val-Ethylamide, reference compound] (Ac-RPEV-NHEt) |  |  | do not display T cell suppressor stimulatory activity of thymopentin | 
7 | CC(C)NC(=O)[C@@H](NC(=O)[C@H](CC(=O)O)NC(=O)[C@@H]1CCCN1C(=O)[C@@H](N)CCCNC(=N)N)C(C)C [Arg-Pro-Asp-Val-Isopropylamide] (H-RPDV-NHiPr) | active |  | display both T cell suppressor and helper activities like thymopentin | display both T cell suppressor and helper activities like thymopentin
8 | CC(C)NC(=O)[C@@H](NC(=O)[C@H](CC(=O)O)NC(=O)[C@H](CCCCN)NC(=O)[C@@H](N)CCCNC(=N)N)C(C)C [Arg-Lys-Asp-Val-Isopropylamide, Arg-Lys-Asp-Val-2-propylamide] (H-RKDV-NHiPr) |  |  | display both T cell suppressor and helper activities like thymopentin | display both T cell suppressor and helper activities like thymopentin
9 | Arg-Pro-Asp-Val-Morpholinoamide [reference compound] |  |  | do not display T cell suppressor stimulatory activity of thymopentin | 
10 | CC(C)[C@H](NC(=O)[C@H](CC(=O)O)NC(=O)[C@H](CCCCN)NC(=O)[C@@H](N)CCCNC(=N)N)C(=O)NNc1ccccc1 [Arg-Lys-Asp-Val-Phenylhydrazide, Arg-Lys-Asp-Val-2-Phenylhydrazide] (H-RKDV-X1) | active |  |  | 
11 | CNC(=O)[C@@H](NC(=O)[C@H](CC(=O)O)NC(=O)[C@@H]1CCCN1C(=O)[C@H](CCCNC(=N)N)NC=O)C(C)C [Formyl-Arg-Pro-Asp-Val-Methylamide, N-formyl-Arg-Pro-Asp-Val-Methylamide] (For-RPDV-NHMe) |  |  | display both T cell suppressor and helper activities like thymopentin | display both T cell suppressor and helper activities like thymopentin
12 | Arg-Lys-Asp-Val-Dimethylamide [reference compound] | inactive |  | do not display T cell suppressor stimulatory activity of thymopentin | 
